Experimental findings from the OligoGym collection are described below.

Where “and” joins values, the source holds several entries; their conditions need not be identical. Identical values can stand only once. After the bases stand the sugars from the 5' end (letter, count) and the backbone: PS all phosphorothioate, else s phosphorothioate and o phosphodiester by linkage. Methylation of C is not given here. e = 2'-O-(2-methoxyethyl) (MOE); k = constrained ethyl (cEt); d = 2'-deoxy (DNA)

This series deals with IRF4. The following applies: ASO.

Regarding “TTGGTTGGCTGGTCTT (sugars kkdddddddddkekek, PS)”, the target mRNA inhibition (MM.1R, 1 µM) amounted to 65%. GAGAAACGAGCCAGTG (sugars k3 d10 k3, PS): the target mRNA inhibition (SK-MEL-28, 4 µM) worked out at 39%. As for “ATGTGTATTACTCTTA (sugars kkdddddddddekeke, PS)”, the target mRNA inhibition (MM.1R, 1 µM) was 60% and 61%. On to GGAGAGGCTGAGATAA (sugars k3 d10 k3, PS), for which, where the note is “SK-MEL-28, 4 µM”, the target mRNA inhibition was found to be 29%. Still for that read-out and setting: in the case of CAACAGGCGGACACGC (sugars k3 d10 k3, PS) it was 42%. For the sequence GAGGAGGAGGACTTAT (sugars k3 d10 k3, PS), under “SK-MEL-28, 4 µM”, the target mRNA inhibition stood at 51%. In the case of GAGTGAGATGCGGAGG (sugars k3 d10 k3, PS), the target mRNA inhibition runs as follows: (MM.1R, 0.0625 µM) 6%; (MM.1R, 0.25 µM) 0%; (MM.1R, 4 µM) 67%. For TGGCGAGTGGCGGGTA (sugars k3 d10 k3, PS), the target mRNA inhibition (MM.1R, 1 µM) was -18%. In the case of CCTACTGGGTACATGG (sugars k3 d10 k3, PS), where the note is “SK-MEL-28, 4 µM”, the target mRNA inhibition is 63%. Take “TGGTTGGCTGGTCTTT (sugars kddddddddddkekek, PS)”: under “MM.1R, 1 µM”, the target mRNA inhibition was 9%.

For the sequence TAGCATGGATCCTGAG (sugars k3 d10 k3, PS), under “SK-MEL-28, 4 µM”, the target mRNA inhibition was found to be 0%. Same read-out and setting: the same measure for CAACCATTTTCACAAG (sugars k4 d8 k4, PS): 5%; for TCAGACAGTGCGCCCC (sugars k3 d10 k3, PS): 26%.

On to GAACAAAAGGTTCCCG (sugars k3 d10 k3, PS), for which the target mRNA inhibition (SK-MEL-28, 4 µM) stood at 18%. As to TCGAGATCATAGTGCA (sugars k3 d10 k3, PS), for the setting “MM.1R, 1 µM”, the target mRNA inhibition stood at 29%. On to ATTATATACTGGTTGG (sugars k3 d10 k3, PS), for which the target mRNA inhibition is, setting by setting: (MM.1R, 0.0625 µM) 3% and 9%; (MM.1R, 0.25 µM) 15% and 25%; (MM.1R, 1 µM) 39% and 57%; (MM.1R, 4 µM) 77% and 74%. Turning to GCACAATTCTCTGAGA (sugars k3 d10 k3, PS), the target mRNA inhibition (SK-MEL-28, 4 µM) was 34%. For GGTGTAACTTTTACCT (sugars k3 d10 k3, PS), the target mRNA inhibition (SK-MEL-28, 4 µM) is 11%. On the same count and under the same terms, the same measure for CCTTTTCAGAGTCCTG (sugars k3 d10 k3, PS): 58%. On the same count and under the same terms, the same measure for GCAGAGGGACCCACAC (sugars k3 d10 k3, PS): 21%. With “ATGTGATAGCTGAGCT (sugars kkdddddddddekeke, PS)”, the target mRNA inhibition (MM.1R, 1 µM) is 2%. Same read-out and setting: the same measure for “CTATAGTGTTCCAGGA (sugars kkdddddddddkekek, PS)”: 43%. For the sequence ACTCACTGGTTCTGAA (sugars k3 d10 k3, PS), the target mRNA inhibition (SK-MEL-28, 4 µM) is 14%.

Consider “GTAGTATGAGAAACGG (sugars kdddddddddkekeke, PS)”, for which the target mRNA inhibition (MM.1R, 1 µM) worked out at 28%. Turning to CTACAAGGTCTGAGTT (sugars k3 d10 k3, PS), under “SK-MEL-28, 4 µM”, the target mRNA inhibition was determined as 17%. The same measure, in the same setting: the same measure for GGCCCCAGCCAAGAAG (sugars k3 d10 k3, PS): 8%. GTATAGTTCTCAACCA (sugars k3 d10 k3, PS): the target mRNA inhibition (SK-MEL-28, 4 µM) stood at 47%. Consider GGTTAAATATTCTTCA (sugars k3 d10 k3, PS), for which the target mRNA inhibition (SK-MEL-28, 4 µM) came to 48%.

As to ACAGTGACTTGCATCC (sugars k3 d10 k3, PS), for the setting “MM.1R, 1 µM”, the target mRNA inhibition was found to be 34%.

With GCTTTTTCAAACACTA (sugars k3 d10 k3, PS), the target mRNA inhibition (SK-MEL-28, 4 µM) was 68%. With CTCTTAGGCACATCAA (sugars k3 d10 k3, PS), the target mRNA inhibition (SK-MEL-28, 4 µM) turned out to be 61%. As for “ACGGAAGTTTACACTG (sugars kddddddddddkekek, PS)”, the target mRNA inhibition (MM.1R, 1 µM) was 7%. For GGGAACAGATAGTTAA (sugars k3 d10 k3, PS), under “SK-MEL-28, 4 µM”, the target mRNA inhibition was 26%.

CGCAGCATCGAACTCC (sugars k3 d10 k3, PS): under “SK-MEL-28, 4 µM”, the target mRNA inhibition is 33%. Turning to GTACATCCTGAAGCCA (sugars k3 d10 k3, PS), the target mRNA inhibition (SK-MEL-28, 4 µM) came to 26%. As to AATCAGAATGGCGAGT (sugars k3 d10 k3, PS), the target mRNA inhibition (SK-MEL-28, 4 µM) worked out at 39%. As for GAATTCCAAACCTTAA (sugars k3 d10 k3, PS), under “MM.1R, 1 µM”, the target mRNA inhibition was found to be 4%. Regarding GTTGCCGAGATATAAA (sugars k3 d10 k3, PS), the target mRNA inhibition (MM.1R, 1 µM) was 13%. AAAGATACAAAACGGA (sugars k3 d10 k3, PS): for the setting “SK-MEL-28, 4 µM”, the target mRNA inhibition worked out at 38%.

Take TGGTAACAATACTGTA (sugars k3 d10 k3, PS): where the note is “SK-MEL-28, 4 µM”, the target mRNA inhibition amounted to 65%.

For TCCAGAAAATTCAGCT (sugars k4 d8 k4, PS), under “SK-MEL-28, 4 µM”, the target mRNA inhibition is 26%. The same measure, in the same setting: the same measure for AAGGATGGGACCGCCC (sugars k3 d10 k3, PS): 39%. Same read-out and setting: in the case of GACAATGTTGTATGAA (sugars k3 d10 k3, PS) it was 72%. On to TCTGAGACTACACCTA (sugars k3 d10 k3, PS), for which the target mRNA inhibition (SK-MEL-28, 4 µM) stood at 27%.

For GCCAAGAGGTGCGAGT (sugars k3 d10 k3, PS), the target mRNA inhibition (SK-MEL-28, 4 µM) amounted to 35%.

TTGCAAGCTATATTAA (sugars k3 d10 k3, PS): the target mRNA inhibition (SK-MEL-28, 4 µM) worked out at 34%. Still for that read-out and setting: in the case of GAGCATCAACAAAGCC (sugars k3 d10 k3, PS) it was 58%; in that of GAATTTACAGCATCTA (sugars k3 d10 k3, PS), 76%.

TTTACCTGGTATTGCT (sugars k3 d10 k3, PS): the target mRNA inhibition (SK-MEL-28, 4 µM) was 38%. Take ATATATGACGACTTAA (sugars k3 d10 k3, PS): the target mRNA inhibition (SK-MEL-28, 4 µM) is 6%. For GGCAAGATGAGAATTC (sugars k3 d10 k3, PS), for the setting “SK-MEL-28, 4 µM”, the target mRNA inhibition is 25%. The same measure, in the same setting: in the case of CTAACTTACAGGACTA (sugars k3 d10 k3, PS) it was 31%. The same measure, in the same setting: in the case of GCCAATTCCACTTTAT (sugars k3 d10 k3, PS) it was 64%.

As for GAAGCATAGAACAGAT (sugars k3 d10 k3, PS), the target mRNA inhibition (SK-MEL-28, 4 µM) is 51%. TTCCAGCTTAGTCACC (sugars k3 d10 k3, PS): where the note is “SK-MEL-28, 4 µM”, the target mRNA inhibition was 37%.

Take GGAAACGAGAACGCAC (sugars k3 d10 k3, PS): the target mRNA inhibition (SK-MEL-28, 4 µM) was 30%. For “CACATCAATGTTTTAG (sugars kkdddddddddekeke, PS)”, the target mRNA inhibition (MM.1R, 1 µM) is 28% and 27%. Consider CCAAGGCTACAGGCAC (sugars k3 d10 k3, PS), for which the target mRNA inhibition (SK-MEL-28, 4 µM) is 63%. With CAGTAACTTGACTTGA (sugars k3 d10 k3, PS), the target mRNA inhibition (SK-MEL-28, 4 µM) came out at 39%. Same read-out and setting: the same measure for AAGTCATTGCTCTTGT (sugars k3 d10 k3, PS): 28%. As for CCTGAGTTACCGCATT (sugars k3 d10 k3, PS), the target mRNA inhibition (MM.1R, 1 µM) was found to be 24%. For CAAAATAGTCACTCAC (sugars k3 d10 k3, PS), the target mRNA inhibition (SK-MEL-28, 4 µM) is -3%. For the sequence ACAGAGACGCGGTGAG (sugars k3 d10 k3, PS), the target mRNA inhibition (MM.1R, 1 µM) was 14%.

For the sequence TATCAGGATCTCAAGG (sugars k3 d10 k3, PS), the target mRNA inhibition (SK-MEL-28, 4 µM) stood at 6%. On the same count and under the same terms, the same measure for GCCGCTGTCGATCTGG (sugars k3 d10 k3, PS): 24%. Still for that read-out and setting: the same measure for CCGAATAGGACCCCTA (sugars k3 d10 k3, PS): 32%.

On to AGCAGTAAACGCAAGT (sugars k3 d10 k3, PS), for which, under “MM.1R, 1 µM”, the target mRNA inhibition was found to be 27%.

On to GTTCATATCACAGAGC (sugars k3 d10 k3, PS), for which the target mRNA inhibition (SK-MEL-28, 4 µM) is 45%.

TAGTGTCGCCATGGCT (sugars k3 d10 k3, PS): the target mRNA inhibition (SK-MEL-28, 4 µM) was 69%. Turning to AATGGCGGATAGATCT (sugars k3 d10 k3, PS), the target mRNA inhibition (MM.1R, 1 µM) was 10% and 25%. CTCCAACCCTAGATAA (sugars k3 d10 k3, PS): where the note is “SK-MEL-28, 4 µM”, the target mRNA inhibition is 2%. Regarding ATGCCATGGACAAGTT (sugars k3 d10 k3, PS), the target mRNA inhibition (MM.1R, 1 µM) was 18%. Turning to GACGGAGGCGGCAGAC (sugars k3 d10 k3, PS), for the setting “SK-MEL-28, 4 µM”, the target mRNA inhibition is -43%. The same measure, in the same setting: in the case of CCGACACGCGCCGCTC (sugars k3 d10 k3, PS) it was 30%; in that of CGCGAAGGCTCCTACC (sugars k3 d10 k3, PS), -41%; in that of CATTAAAGAGTGGTAC (sugars k3 d10 k3, PS), -3%.

For GGCCATCCAGAGGACC (sugars k3 d10 k3, PS), the target mRNA inhibition (SK-MEL-28, 4 µM) is 25%. Consider AACAGAGACGCGGTGA (sugars k3 d10 k3, PS), for which, where the note is “SK-MEL-28, 4 µM”, the target mRNA inhibition stood at 10%. Turning to CAGAGCCAACTTATAG (sugars k3 d10 k3, PS), the target mRNA inhibition (MM.1R, 1 µM) is 30% and 43%.

Consider “CAGTGACTTGCATCCA (sugars kdddddddddkekeke, PS)”, for which, for the setting “MM.1R, 1 µM”, the target mRNA inhibition came out at 19%. On the same count and under the same terms, the same measure for “TTGGTTGGCTGGTCTT (sugars k2 d9 e3 k2, PS)”: 50%. On to CTAAACTCCTAAGTAC (sugars k3 d10 k3, PS), for which the target mRNA inhibition (SK-MEL-28, 4 µM) was found to be 14%. As for TCAAAGCGCACCGCAG (sugars k3 d10 k3, PS), for the setting “SK-MEL-28, 4 µM”, the target mRNA inhibition worked out at 43%.

On to TTTGTACGGGTCTGAG (sugars k3 d10 k3, PS), for which the target mRNA inhibition (SK-MEL-28, 4 µM) was determined as 20%. AGCTAACTGGCCTCAA (sugars k3 d10 k3, PS): the target mRNA inhibition (SK-MEL-28, 4 µM) worked out at 23%. As to “CAGTTGTAAATGAGTC (sugars kkkdddddddddkeke, PS)”, the target mRNA inhibition reads like this: (MM.1R, 0.074 µM) 21%; (MM.1R, 0.222 µM) 28%; (MM.1R, 0.666 µM) 57%; (MM.1R, 1 µM) 58%; (MM.1R, 2 µM) 80%. With TATATAGAATTAGGTG (sugars k3 d10 k3, PS), the target mRNA inhibition (SK-MEL-28, 4 µM) is -16%. On to GTTGCATAGGCATCCT (sugars k3 d10 k3, PS), for which, under “MM.1R, 1 µM”, the target mRNA inhibition was found to be 27%.

For GAGCATCCGCTTGGAG (sugars k3 d10 k3, PS), under “SK-MEL-28, 4 µM”, the target mRNA inhibition was 31%. The same measure, in the same setting: the same measure for CCCACATGTCCCGTGG (sugars k3 d10 k3, PS): 5%; for GGCTGAGATAGGAAGC (sugars k3 d10 k3, PS): 36%; for AATGTAAGTGATAGGT (sugars k3 d10 k3, PS): 80%.
